Key:
[1] = target: Peregrin (Homo sapiens) (UniProt P55201); details: Compound concentration 10.0 uM, Protein concentration 2.0 uM
[2] = target: Transcription initiation factor TFIID subunit 1-like (Homo sapiens) (UniProt Q8IZX4); details: Compound concentration 10.0 uM, Protein concentration 2.0 uM
[3] = target: Protein polybromo-1 (Homo sapiens) (UniProt Q86U86); details: Compound concentration 10.0 uM, Protein concentration 2.0 uM
[4] = target: ATPase family AAA domain-containing protein 2 (Homo sapiens) (UniProt Q6PL18); details: Compound concentration 10.0 uM, Protein concentration 2.0 uM
[5] = target: Bromodomain-containing protein 3 (Homo sapiens) (UniProt Q15059); details: Compound concentration 10.0 uM, Protein concentration 2.0 uM
[6] = target: Bromodomain adjacent to zinc finger domain protein 1A (Homo sapiens) (UniProt Q9NRL2); details: Compound concentration 10.0 uM, Protein concentration 2.0 uM
[7] = target: T1, Chromatin remodeling regulator CECR2 (Homo sapiens, UniProt Q9BXF3); test: Alphascreen assay. Binding to CECR2A (domain start/stop: P420-D543) by alphascreen assay
[8] = target: Protein polybromo-1 (Homo sapiens) (UniProt Q86U86); details: Compound concentration 10.0 uM, Protein concentration 2.0 uM; remark: listed apart in the source
[9] = target: Protein polybromo-1 (Homo sapiens) (UniProt Q86U86); details: Compound concentration 10.0 uM, Protein concentration 2.0 uM; remark: listed apart in the source
[10] = target: Bromodomain adjacent to zinc finger domain protein 2B (Homo sapiens) (UniProt Q9UIF8); details: Compound concentration 10.0 uM, Protein concentration 2.0 uM
[11] = target: Transcription intermediary factor 1-beta (Homo sapiens) (UniProt Q13263); details: Compound concentration 10.0 uM, Protein concentration 2.0 uM
[12] = target: Bromodomain-containing protein 1 (Homo sapiens) (UniProt O95696); details: Compound concentration 10.0 uM, Protein concentration 2.0 uM
[13] = target: PH-interacting protein (Homo sapiens) (UniProt Q8WWQ0); details: Compound concentration 10.0 uM, Protein concentration 2.0 uM
[14] = target: Bromodomain-containing protein 3 (Homo sapiens) (UniProt Q15059); details: Compound concentration 10.0 uM, Protein concentration 2.0 uM; remark: listed apart in the source
[15] = target: Transcription initiation factor TFIID subunit 1 (Homo sapiens) (UniProt P21675); details: Compound concentration 10.0 uM, Protein concentration 2.0 uM
[16] = target: Transcription intermediary factor 1-alpha (Homo sapiens) (UniProt O15164); details: Compound concentration 10.0 uM, Protein concentration 2.0 uM
[17] = target: Histone-lysine N-methyltransferase ASH1L (Homo sapiens) (UniProt Q9NR48); details: Compound concentration 10.0 uM, Protein concentration 2.0 uM
[18] = target: Peregrin (Homo sapiens) (UniProt P55201); details: Compound concentration 10.0 uM, Protein concentration 2.0 uM; remark: listed apart in the source
[19] = target: Bromodomain and PHD finger-containing protein 3 (Homo sapiens) (UniProt Q9ULD4); details: Compound concentration 10.0 uM, Protein concentration 2.0 uM
[20] = target: Bromodomain-containing protein 7 (Homo sapiens) (UniProt Q9NPI1); details: Compound concentration 10.0 uM, Protein concentration 2.0 uM
[21] = target: Protein polybromo-1 (Homo sapiens) (UniProt Q86U86); details: Compound concentration 10.0 uM, Protein concentration 2.0 uM; remark: listed apart in the source
[22] = target: Histone acetyltransferase p300 (Homo sapiens) (UniProt Q09472); details: Compound concentration 10.0 uM, Protein concentration 2.0 uM
[23] = target: SWI/SNF-related matrix-associated actin-dependent regulator of chromatin subfamily A member 2 (Homo sapiens) (UniProt P51531); details: Compound concentration 10.0 uM, Protein concentration 2.0 uM
[24] = target: Transcription initiation factor TFIID subunit 1-like (Homo sapiens) (UniProt Q8IZX4); details: Compound concentration 10.0 uM, Protein concentration 2.0 uM; remark: listed apart in the source
[25] = target: SWI/SNF-related matrix-associated actin-dependent regulator of chromatin subfamily A member 4 (Homo sapiens) (UniProt P51532); details: Compound concentration 10.0 uM, Protein concentration 2.0 uM
[26] = target: Bromodomain adjacent to zinc finger domain protein 2A (Homo sapiens) (UniProt Q9UIF9); details: Compound concentration 10.0 uM, Protein concentration 2.0 uM
[27] = target: Transcription initiation factor TFIID subunit 1 (Homo sapiens) (UniProt P21675); details: Compound concentration 10.0 uM, Protein concentration 2.0 uM; remark: listed apart in the source
[28] = target: Bromodomain-containing protein 9 (Homo sapiens) (UniProt Q9H8M2); details: Compound concentration 10.0 uM, Protein concentration 2.0 uM
[29] = target: Histone acetyltransferase KAT2A (Homo sapiens) (UniProt Q92830); details: Compound concentration 10.0 uM, Protein concentration 2.0 uM
[30] = target: Peregrin (Homo sapiens, UniProt P55201); test: Alphascreen assay. Binding to BRPF1B (domain start/stop: M626-G740) by alphascreen assay
[31] = target: Bromodomain and WD repeat-containing protein 1 (Homo sapiens) (UniProt Q9NSI6); details: Compound concentration 10.0 uM, Protein concentration 2.0 uM
[32] = target: ATPase family AAA domain-containing protein 2B (Homo sapiens) (UniProt Q9ULI0); details: Compound concentration 10.0 uM, Protein concentration 2.0 uM
[33] = target: T2, CREB-binding protein (Homo sapiens, UniProt Q92793); test: Alphascreen assay. Binding to CREBBPA (domain start/stop: R1081-G1197) by alphascreen assay
[34] = target: Bromodomain and WD repeat-containing protein 3 (Homo sapiens) (UniProt Q6RI45); details: Compound concentration 10.0 uM, Protein concentration 2.0 uM
[35] = target: T2, CREB-binding protein; details: Compound concentration 10.0 uM, Protein concentration 2.0 uM
[36] = target: Histone acetyltransferase KAT2B (Homo sapiens) (UniProt Q92831); details: Compound concentration 10.0 uM, Protein concentration 2.0 uM
[37] = target: T1, Chromatin remodeling regulator CECR2; test: Alphascreen assay. Binding to CECR2A (domain start/stop: P420-H538) by alphascreen assay
[38] = target: Protein polybromo-1 (Homo sapiens) (UniProt Q86U86); details: Compound concentration 10.0 uM, Protein concentration 2.0 uM; remark: listed apart in the source
[39] = target: Bromodomain testis-specific protein (Homo sapiens) (UniProt Q58F21); details: Compound concentration 10.0 uM, Protein concentration 2.0 uM
[40] = target: Nuclear body protein SP140 (Homo sapiens) (UniProt Q13342); details: Compound concentration 10.0 uM, Protein concentration 2.0 uM
[41] = target: Protein polybromo-1 (Homo sapiens) (UniProt Q86U86); details: Compound concentration 10.0 uM, Protein concentration 2.0 uM; remark: listed apart in the source
[42] = target: Bromodomain-containing protein 2 (Homo sapiens) (UniProt P25440); details: Compound concentration 10.0 uM, Protein concentration 2.0 uM
[43] = target: T1, Chromatin remodeling regulator CECR2; details: Compound concentration 10.0 uM, Protein concentration 2.0 uM
[44] = target: Bromodomain testis-specific protein (Homo sapiens) (UniProt Q58F21); details: Compound concentration 10.0 uM, Protein concentration 2.0 uM; remark: listed apart in the source
[45] = target: Bromodomain-containing protein 4 (Homo sapiens) (UniProt O60885); details: Compound concentration 10.0 uM, Protein concentration 2.0 uM
[46] = target: Nucleosome-remodeling factor subunit BPTF (Homo sapiens) (UniProt Q12830); details: Compound concentration 10.0 uM, Protein concentration 2.0 uM
[47] = target: Nuclear body protein SP140-like protein (Homo sapiens) (UniProt Q9H930); details: Compound concentration 10.0 uM, Protein concentration 2.0 uM
[48] = target: Histone-lysine N-methyltransferase 2A (Homo sapiens) (UniProt Q03164); details: Compound concentration 10.0 uM, Protein concentration 2.0 uM
[49] = target: Bromodomain-containing protein 2 (Homo sapiens) (UniProt P25440); details: Compound concentration 10.0 uM, Protein concentration 2.0 uM; remark: listed apart in the source
[50] = target: Tyrosine-protein kinase BAZ1B (Homo sapiens) (UniProt Q9UIG0); details: Compound concentration 10.0 uM, Protein concentration 2.0 uM

Sequence of Protein polybromo-1 (Homo sapiens) (Q86U86 whole entry, the tested form may be a part): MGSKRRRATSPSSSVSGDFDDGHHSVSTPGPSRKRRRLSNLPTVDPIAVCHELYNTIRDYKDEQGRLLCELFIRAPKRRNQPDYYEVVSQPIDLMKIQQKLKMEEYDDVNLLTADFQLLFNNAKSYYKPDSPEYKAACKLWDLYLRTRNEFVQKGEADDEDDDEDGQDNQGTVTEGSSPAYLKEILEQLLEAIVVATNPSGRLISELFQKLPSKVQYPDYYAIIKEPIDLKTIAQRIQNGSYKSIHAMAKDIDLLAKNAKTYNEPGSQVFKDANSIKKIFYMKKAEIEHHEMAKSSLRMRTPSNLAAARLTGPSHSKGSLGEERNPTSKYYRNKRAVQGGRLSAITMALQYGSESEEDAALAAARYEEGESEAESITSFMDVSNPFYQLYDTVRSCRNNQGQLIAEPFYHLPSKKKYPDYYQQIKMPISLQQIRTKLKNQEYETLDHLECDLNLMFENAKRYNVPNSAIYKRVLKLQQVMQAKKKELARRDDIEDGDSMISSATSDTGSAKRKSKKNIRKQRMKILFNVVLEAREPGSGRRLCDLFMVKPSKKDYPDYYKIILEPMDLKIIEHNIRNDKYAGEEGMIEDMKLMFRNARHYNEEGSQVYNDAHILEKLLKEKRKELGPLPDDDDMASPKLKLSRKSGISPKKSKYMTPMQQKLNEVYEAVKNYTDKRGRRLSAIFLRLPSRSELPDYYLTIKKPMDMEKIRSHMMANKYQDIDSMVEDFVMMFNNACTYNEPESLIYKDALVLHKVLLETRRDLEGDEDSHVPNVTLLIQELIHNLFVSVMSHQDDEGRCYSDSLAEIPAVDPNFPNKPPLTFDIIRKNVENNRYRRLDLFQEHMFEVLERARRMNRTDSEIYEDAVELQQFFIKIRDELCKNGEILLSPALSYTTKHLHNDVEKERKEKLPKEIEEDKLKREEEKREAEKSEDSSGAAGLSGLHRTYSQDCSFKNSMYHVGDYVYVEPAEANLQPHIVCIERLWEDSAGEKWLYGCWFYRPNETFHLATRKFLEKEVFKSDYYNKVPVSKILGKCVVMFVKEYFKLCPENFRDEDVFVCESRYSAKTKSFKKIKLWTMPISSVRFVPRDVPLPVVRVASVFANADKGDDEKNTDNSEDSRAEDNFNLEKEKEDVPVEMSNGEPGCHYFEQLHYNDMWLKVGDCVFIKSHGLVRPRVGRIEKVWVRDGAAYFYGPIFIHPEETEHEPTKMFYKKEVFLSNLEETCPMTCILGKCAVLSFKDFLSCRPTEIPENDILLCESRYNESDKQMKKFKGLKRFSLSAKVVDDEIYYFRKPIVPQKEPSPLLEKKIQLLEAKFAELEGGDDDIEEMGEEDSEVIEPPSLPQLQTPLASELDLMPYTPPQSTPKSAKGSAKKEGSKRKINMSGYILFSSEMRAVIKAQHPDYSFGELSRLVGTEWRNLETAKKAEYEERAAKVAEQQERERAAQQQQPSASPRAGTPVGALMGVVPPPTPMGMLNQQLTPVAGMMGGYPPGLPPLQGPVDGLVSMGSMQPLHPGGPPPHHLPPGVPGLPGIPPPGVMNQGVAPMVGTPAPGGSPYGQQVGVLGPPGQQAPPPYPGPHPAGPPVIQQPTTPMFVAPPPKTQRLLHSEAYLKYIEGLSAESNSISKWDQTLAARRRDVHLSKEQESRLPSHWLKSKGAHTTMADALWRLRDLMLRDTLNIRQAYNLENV
Sequence of Peregrin (Homo sapiens) (P55201 whole entry): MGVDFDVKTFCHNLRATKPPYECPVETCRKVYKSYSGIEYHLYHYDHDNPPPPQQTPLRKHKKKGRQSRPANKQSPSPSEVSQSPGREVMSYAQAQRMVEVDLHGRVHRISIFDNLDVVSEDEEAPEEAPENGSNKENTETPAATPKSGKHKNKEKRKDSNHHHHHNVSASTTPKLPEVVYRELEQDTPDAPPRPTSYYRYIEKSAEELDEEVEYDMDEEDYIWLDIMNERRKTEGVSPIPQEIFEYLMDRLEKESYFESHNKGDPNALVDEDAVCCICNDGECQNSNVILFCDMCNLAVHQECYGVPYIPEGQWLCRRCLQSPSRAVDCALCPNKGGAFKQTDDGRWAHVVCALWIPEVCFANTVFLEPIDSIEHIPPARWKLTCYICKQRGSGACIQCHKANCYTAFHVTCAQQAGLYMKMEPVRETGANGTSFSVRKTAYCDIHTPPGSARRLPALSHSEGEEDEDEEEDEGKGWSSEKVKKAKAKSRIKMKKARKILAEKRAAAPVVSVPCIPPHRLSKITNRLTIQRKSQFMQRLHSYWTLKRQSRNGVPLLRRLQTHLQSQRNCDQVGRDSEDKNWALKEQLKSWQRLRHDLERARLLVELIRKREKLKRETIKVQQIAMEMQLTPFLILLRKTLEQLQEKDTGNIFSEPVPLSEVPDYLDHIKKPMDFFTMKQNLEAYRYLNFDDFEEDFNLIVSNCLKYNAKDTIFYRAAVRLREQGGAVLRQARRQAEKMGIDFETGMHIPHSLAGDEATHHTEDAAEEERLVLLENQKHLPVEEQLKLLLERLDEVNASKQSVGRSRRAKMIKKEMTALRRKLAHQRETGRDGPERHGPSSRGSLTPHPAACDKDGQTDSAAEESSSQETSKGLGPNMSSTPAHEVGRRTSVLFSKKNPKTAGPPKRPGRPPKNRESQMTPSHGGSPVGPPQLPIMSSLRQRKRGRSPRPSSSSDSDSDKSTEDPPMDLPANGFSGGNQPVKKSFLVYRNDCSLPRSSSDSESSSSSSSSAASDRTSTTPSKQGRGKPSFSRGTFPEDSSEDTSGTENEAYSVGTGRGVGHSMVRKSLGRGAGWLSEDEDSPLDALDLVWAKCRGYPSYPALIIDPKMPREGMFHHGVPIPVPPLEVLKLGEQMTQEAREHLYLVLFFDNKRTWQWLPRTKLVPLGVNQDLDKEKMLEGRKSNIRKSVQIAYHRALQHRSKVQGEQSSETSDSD
Sequence of Transcription initiation factor TFIID subunit 1-like (Homo sapiens) (Q8IZX4 whole entry): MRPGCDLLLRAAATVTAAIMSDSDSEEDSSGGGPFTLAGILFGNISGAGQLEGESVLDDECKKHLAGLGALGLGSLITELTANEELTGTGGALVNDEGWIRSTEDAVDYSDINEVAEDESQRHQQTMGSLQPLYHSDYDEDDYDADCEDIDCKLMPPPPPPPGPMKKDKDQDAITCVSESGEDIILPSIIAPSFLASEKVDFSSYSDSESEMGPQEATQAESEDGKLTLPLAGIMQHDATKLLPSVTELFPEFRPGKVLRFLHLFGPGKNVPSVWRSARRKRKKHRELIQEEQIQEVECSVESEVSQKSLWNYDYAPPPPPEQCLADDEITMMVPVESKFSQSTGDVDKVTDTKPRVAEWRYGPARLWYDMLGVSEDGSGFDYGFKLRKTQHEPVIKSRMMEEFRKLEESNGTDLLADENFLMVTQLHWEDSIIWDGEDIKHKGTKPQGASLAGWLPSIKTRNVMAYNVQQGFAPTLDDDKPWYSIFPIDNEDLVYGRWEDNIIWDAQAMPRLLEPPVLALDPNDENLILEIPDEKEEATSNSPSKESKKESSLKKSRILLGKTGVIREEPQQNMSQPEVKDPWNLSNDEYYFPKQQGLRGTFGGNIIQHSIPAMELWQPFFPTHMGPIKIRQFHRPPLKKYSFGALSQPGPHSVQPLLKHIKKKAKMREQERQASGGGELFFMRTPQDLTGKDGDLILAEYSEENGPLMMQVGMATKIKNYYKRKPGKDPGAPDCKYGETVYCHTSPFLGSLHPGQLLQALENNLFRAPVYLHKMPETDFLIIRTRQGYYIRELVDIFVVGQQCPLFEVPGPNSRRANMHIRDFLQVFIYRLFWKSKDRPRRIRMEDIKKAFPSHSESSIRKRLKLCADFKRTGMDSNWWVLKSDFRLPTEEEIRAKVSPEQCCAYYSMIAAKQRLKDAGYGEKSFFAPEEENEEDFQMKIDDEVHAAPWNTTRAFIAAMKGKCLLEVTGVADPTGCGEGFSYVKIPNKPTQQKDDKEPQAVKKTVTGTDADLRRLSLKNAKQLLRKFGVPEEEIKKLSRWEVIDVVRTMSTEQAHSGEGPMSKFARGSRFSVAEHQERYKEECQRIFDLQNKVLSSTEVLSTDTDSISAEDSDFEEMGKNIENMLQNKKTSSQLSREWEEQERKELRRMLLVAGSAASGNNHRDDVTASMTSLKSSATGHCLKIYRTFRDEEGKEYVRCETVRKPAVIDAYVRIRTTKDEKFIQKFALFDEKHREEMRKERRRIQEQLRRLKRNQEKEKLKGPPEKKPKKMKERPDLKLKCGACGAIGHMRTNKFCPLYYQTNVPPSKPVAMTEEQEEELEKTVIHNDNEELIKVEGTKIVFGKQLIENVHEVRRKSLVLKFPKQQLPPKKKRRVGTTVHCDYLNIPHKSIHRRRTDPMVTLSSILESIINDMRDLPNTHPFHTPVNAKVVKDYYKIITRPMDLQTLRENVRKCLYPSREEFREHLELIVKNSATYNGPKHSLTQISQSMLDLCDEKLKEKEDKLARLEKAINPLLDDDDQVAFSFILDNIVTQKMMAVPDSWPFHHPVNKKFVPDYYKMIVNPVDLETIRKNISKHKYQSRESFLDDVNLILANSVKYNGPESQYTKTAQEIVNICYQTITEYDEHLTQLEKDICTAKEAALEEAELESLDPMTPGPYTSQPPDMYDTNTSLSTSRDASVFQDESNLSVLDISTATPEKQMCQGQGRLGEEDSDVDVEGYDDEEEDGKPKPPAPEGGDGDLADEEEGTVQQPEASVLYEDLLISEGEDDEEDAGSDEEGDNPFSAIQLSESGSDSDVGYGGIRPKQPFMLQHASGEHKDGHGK
Sequence of Peregrin (P55201 whole entry): as the sequence (P55201 whole entry) above

ΔTm [1]: 0.67 °C | ΔTm [2]: 0.18 °C | ΔTm [3]: -0.01 °C | ΔTm [4]: 0.18 °C | ΔTm [5]: 0.91 °C | ΔTm [6]: 1.19 °C | IC50 [7]: 2430 nM | ΔTm [8]: 0.08 °C | ΔTm [9]: -0.26 °C | ΔTm [10]: 1.04 °C | ΔTm [11]: -0.06 °C | ΔTm [12]: 0.25 °C | ΔTm [13]: 0.41 °C | ΔTm [14]: 1.01 °C | ΔTm [15]: 0.25 °C | ΔTm [16]: 1.33 °C | ΔTm [17]: 0.38 °C | ΔTm [18]: 0.29 °C | ΔTm [19]: 0.4 °C | ΔTm [20]: 6.98 °C | ΔTm [21]: 0.08 °C | ΔTm [22]: 3.55 °C | ΔTm [23]: 0.13 °C | ΔTm [24]: 1.64 °C | ΔTm [25]: 0.08 °C | ΔTm [26]: 1.02 °C | ΔTm [27]: 1.04 °C | ΔTm [28]: 9.32 °C | ΔTm [29]: 0.61 °C | IC50 [30]: 2230 nM | ΔTm [31]: 0.79 °C | ΔTm [32]: 0.11 °C | IC50 [33]: 3440 nM | ΔTm [34]: 1.67 °C | ΔTm [35]: 2.98 °C | ΔTm [36]: 0.7 °C | IC50 [37]: 2390 nM | ΔTm [38]: -0.13 °C | ΔTm [39]: 0.61 °C | ΔTm [40]: 0.3 °C | ΔTm [41]: 0.19 °C | ΔTm [42]: 1.14 °C | ΔTm [43]: 3.76 °C | ΔTm [44]: 0.83 °C | ΔTm [45]: 1.78 °C | ΔTm [46]: -0.04 °C | ΔTm [47]: 0.95 °C | ΔTm [48]: 0.02 °C | ΔTm [49]: 0.84 °C | ΔTm [50]: 0.68 °C
Structure (SMILES): CC(=O)c1cc(-c2cc(C(=O)NC3CC3)ccc2C)c2ncccn12

Source: ChEMBL document CHEMBL4649997, “Data for probe TP-472” (2021)
